Results as given in DBAASP.
Converted amounts (≈) assume the structure as drawn. “And” between values parts separate entries of the source, which are not always exact repeats. Equal values may be shown once. One block for each molecule: values may come before it.

Assays:
Test in all cases: ≥ marks a high value that may be exact or a test limit, other limits are often not marked, values filed in µg/mL are converted to µM
[1] = tested on: Escherichia coli ATCC 25922
[2] = tested on: Mycobacterium tuberculosis H37Rv
[3] = tested on: Klebsiella pneumoniae ST258
[4] = tested on: Mycobacterium tuberculosis FYX
[5] = tested on: Mycobacterium tuberculosis CAS3
[6] = tested on: Mycobacterium tuberculosis WXY
[7] = tested on: Pseudomonas aeruginosa ATCC 27853
[8] = tested on: Mycobacterium tuberculosis
[9] = tested on: Escherichia coli IP76-24
[10] = tested on: Staphylococcus aureus IP76-25
[11] = tested on: Trichophyton simii IP1063-74
[12] = tested on: Trichophyton rubrum IP2043-92
[13] = tested on: Cryptococcus neoformans IP962-67
[14] = tested on: Candida albicans IP886-65
[15] = tested on: Enterococcus faecalis IP103214
[16] = tested on: Aeromonas caviae IP67-16T
[17] = tested on: Trichophyton simii J43 IP903-65
[18] = tested on: Nocardia brasiliensis IP16-80
[19] = tested on: Candida albicans IP884-65
[20] = tested on: Aspergillus fumigatus IP1025-70
[21] = tested on: Saccharomyces cerevisiae IP118079
[22] = tested on: Microsporum canis IP1194
[23] = tested on: Trichophyton mentagrophytes IP877-71
[24] = tested on: Cryptococcus neoformans IP960-67
[25] = tested on: Aspergillus niger IP218-53
[26] = tested on: Acinetobacter calcoaceticus ATCC 2305-5
[27] = tested on: Micrococcus luteus ATCC 4698
[28] = tested on: Yersinia enterocolitica ATCC 9610
[29] = tested on: Bacillus subtilis ICTA-07
[30] = tested on: Enterococcus faecalis WHO 14
[31] = tested on: Aspergillus fumigatus
[32] = tested on: Neurospora crassa CBS 327-54
[33] = tested on: Micrococcus luteus A270
[34] = tested on: Escherichia coli D22

MIC [1]: 25 µM (≈ 42 µg/mL)
MIC [2]: 11.9 µM and 11.2 µM
MIC [3]: 29.8 µM (≈ 50 µg/mL)
MIC [4]: 11.2 µM (≈ 18.8 µg/mL)
MIC [5]: 11.2 µM (≈ 18.8 µg/mL)
MIC [6]: 22.3 µM (≈ 37.5 µg/mL)
MIC [7]: > 29.8 µM
MIC [8]: 5.95 µM (≈ 10 µg/mL)
SMILES: CC(C)C[C@H](NC(=O)[C@H](CCCCN)NC(=O)[C@H](CCCCN)NC(=O)[C@H](CO)NC(=O)[C@H](Cc1ccccc1)NC(=O)[C@H](CCCCN)NC(=O)[C@H](CCCCN)NC(=O)[C@H](CC(C)C)NC(=O)CNC(=O)[C@H](CCCCN)NC(=O)[C@H](CC(C)C)NC(=O)CNC(=O)[C@H](Cc1c[nH]c2ccccc12)NC(=O)[C@@H](N)Cc1ccccc1)C(=O)O [FWGLKGLKKFSKKL]

MIC [9]: ≥ 35 µM
MIC [10]: 2 µM (≈ 5.68 µg/mL)
MIC [11]: 30 µM (≈ 85.2 µg/mL)
MIC [12]: 20 µM (≈ 56.8 µg/mL)
MIC [13]: 1 µM (≈ 2.84 µg/mL)
MIC [14]: 10 µM (≈ 28.4 µg/mL)
MIC [15]: ≥ 40 µM
MIC [16]: ≥ 35 µM
MIC [17]: 20 µM (≈ 56.8 µg/mL)
MIC [18]: ≥ 40 µM
MIC [19]: 10 µM (≈ 28.4 µg/mL)
MIC [20]: ≥ 70 µM
MIC [21]: 5 µM (≈ 14.2 µg/mL)
MIC [22]: 15 µM (≈ 42.6 µg/mL)
MIC [23]: 20 µM (≈ 56.8 µg/mL)
MIC [24]: 1 µM (≈ 2.84 µg/mL)
MIC [25]: 30 µM (≈ 85.2 µg/mL)
SMILES: CC[C@H](C)[C@H](NC(=O)[C@H](CCCCN)NC(=O)[C@H](CO)NC(=O)[C@H](Cc1c[nH]c2ccccc12)NC(=O)[C@H](CC(C)C)NC(=O)CN)C(=O)N[C@@H](CCCCN)C(=O)N[C@H](C(=O)N[C@@H](C)C(=O)NCC(=O)N[C@@H](CCCCN)C(=O)N[C@@H](CO)C(=O)N[C@H](C(=O)N[C@@H](C)C(=O)N[C@@H](CCCCN)C(=O)N[C@@H](C)C(=O)N[C@@H](C)C(=O)N[C@@H](C)C(=O)N[C@@H](CCCCN)C(=O)N[C@@H](C)C(=O)N[C@@H](C)C(=O)N[C@H](C(=O)N[C@@H](CCCCN)C(=O)N[C@@H](C)C(=O)N[C@H](C(=O)N[C@H](C(=O)N[C@@H](CC(N)=O)C(=O)N[C@@H](C)C(=O)N[C@H](C(=O)O)C(C)C)[C@@H](C)O)C(C)C)C(C)C)C(C)C)[C@@H](C)O [GLWSKIKTAGKSVAKAAAKAAVKAVTNAV]

MIC [26]: 27 µM (≈ 199 µg/mL)
MIC [27]: 27 µM (≈ 199 µg/mL)
MIC [28]: ≥ 46 µM
MIC [7]: 54 µM (≈ 398 µg/mL)
MIC [29]: 30 µM (≈ 221 µg/mL)
MIC [30]: ≥ 65 µM
SMILES: CSCC[C@@H]1NC(=O)[C@H](Cc2c[nH]c3ccccc23)NC(=O)[C@H](C)NC(=O)[C@H](Cc2ccc(O)cc2)NC(=O)[C@@H]2CSSC[C@@H]3NC(=O)[C@H](CO)NC(=O)[C@H](Cc4ccc(O)cc4)NC(=O)[C@H](CCCCN)NC(=O)[C@@H](NC(=O)CNC(=O)[C@H](CC(=O)O)NC(=O)[C@H](CC(N)=O)NC(=O)CNC(=O)[C@@H](NC(=O)[C@H](CC(C)C)NC(=O)[C@H](Cc4ccc(O)cc4)NC(=O)CNC(=O)[C@H](CC(=O)O)NC(=O)[C@@H](N)CCCCN)C(C)C)CSSC[C@@H](C(=O)NCC(=O)N[C@@H](CCCN=C(N)N)C(N)=O)NC(=O)[C@H](CCCN=C(N)N)NC(=O)[C@H](CC(N)=O)NC(=O)[C@H]([C@@H](C)O)NC(=O)[C@H](C)NC(=O)[C@H](CCCN=C(N)N)NC(=O)[C@H](CC(N)=O)NC(=O)[C@H](Cc4c[nH]c5ccccc45)NC(=O)[C@H]([C@@H](C)O)NC(=O)[C@H](CCCCN)NC(=O)[C@H](C(C)C)NC(=O)[C@H](Cc4c[nH]c5ccccc45)NC(=O)[C@H](CC(N)=O)NC(=O)[C@@H]4CCCN4C(=O)[C@H](CCSC)NC(=O)[C@H](CO)NC(=O)[C@H](Cc4ccc(O)cc4)NC(=O)[C@@H]4CSSC[C@H](NC(=O)[C@H](CCC(=O)O)NC(=O)[C@H](CC(N)=O)NC(=O)[C@H](C)NC(=O)[C@H](CSSC[C@H](NC(=O)[C@H](C)NC1=O)C(=O)N[C@@H](Cc1ccc(O)cc1)C(=O)N4)NC(=O)[C@H](Cc1ccc(O)cc1)NC(=O)[C@H]([C@@H](C)O)NC(=O)CNC(=O)[C@@H]1CCCN1C(=O)[C@H](CCCN=C(N)N)NC(=O)[C@H]([C@@H](C)O)NC(=O)[C@H](Cc1ccccc1)NC3=O)C(=O)N[C@@H](CO)C(=O)N[C@@H](CCCN=C(N)N)C(=O)N[C@@H](C(C)C)C(=O)N[C@@H](CCCCN)C(=O)NCC(=O)N[C@@H](CCCCN)C(=O)N[C@@H](CC(=O)O)C(=O)NCC(=O)N[C@@H](Cc1ccc(O)cc1)C(=O)N2 [KDGYLVGNDGCKYSCFTRPGTYCANECSRVKGKDGYCYAWMACYCYSMPNWVKTWNRATNRCGR]

MIC [31]: ≥ 100 µM
MIC [32]: 10 µM (≈ 23.4 µg/mL)
MIC [33]: 10 µM (≈ 23.4 µg/mL)
MIC [34]: ≥ 100 µM
SMILES: CSCC[C@H](NC(=O)[C@H](CO)NC(=O)[C@@H](N)CO)C(=O)N[C@@H](CCCCN)C(=O)N[C@@H](CC(C)C)C(=O)N[C@@H](CO)C(=O)N[C@@H](Cc1ccccc1)C(=O)N[C@@H](CCCN=C(N)N)C(=O)N[C@@H](C)C(=O)N[C@@H](CCCN=C(N)N)C(=O)N[C@@H](C)C(=O)N[C@@H](Cc1ccc(O)cc1)C(=O)NCC(=O)N[C@@H](Cc1ccccc1)C(=O)N[C@@H](CCCN=C(N)N)C(=O)NCC(=O)N1CCC[C@H]1C(=O)NCC(=O)N[C@@H](CC(C)C)C(=O)N[C@@H](CCC(N)=O)C(=O)N[C@@H](CC(C)C)C(=O)O [SSMKLSFRARAYGFRGPGLQL]
